According to patent publication US20220087987A1, “A METHOD FOR TREATING SWI/SNF COMPLEX-DEFICIENT CANCERS COMPRISING GLUTATHIONE (GSH) METABOLIC PATHWAY INHIBITOR” (National Cancer Center, priority 2018, published 2022):

Columns and labels:
Format in all cases: cell-based, human
GSH = assay: Detection of GSH in cells (GSH/GSSG-Glo, GSH-Glo)
[1] = system: ARID1A-WT and ARID1A-KO HCT116 cells; assay: Cell viability and colony formation assays; settings: cell viability 5 days, colony formation 10 days
Description: (§1) Cell viability was examined by measuring the cellular ATP level using the CellTiter-Glo Luminescent Cell Viability Assay (Promega). To measure cell viability after siRNA-mediated knockdown, cell lines were transfected with siRNAs (25 nM) using Lipofectamine RNAiMAX. After 48 hrs, cells were trypsinized and repeatedly transfected with siRNAs (25 nM) using Lipofectamine RNAiMAX. Cells were trypsinized after a further 48 hrs, counted, and reseeded at the specified density in 96-well plates. To measure cell viability after drug treatment, cells were trypsinized, counted, reseeded at the specified density in 96-well plates, and exposed to the indicated concentrations of drugs. Cell viability was measured using the CellTiter-Glo Luminescent Cell Viability Assay. Luminescence was measured using an Envision Multi-label plate reader (PerkinElmer).
The effect of drug treatment on cancer cell survival was evaluated in a colony formation assay. Cells were trypsinized, counted, reseeded at the specified density in 12-well plates, exposed to the indicated concentrations of drugs for 10-14 days, and fixed for 10 min in 50% (v/v) methanol containing 0.01% (w/v) crystal violet. Images were taken on LAS-3000 Imaging System (Fujifilm) and colonies were counted using Multi Gauge software.

[2] = system: bile duct cancer cell lines; assay: Cell viability of bile duct cancer cell lines; settings: treatment for 6 days
Description: as §1

NOXA = assay: Quantitation of NOXA mRNA (quantitative RT-PCR); settings: ARID1A-KO cells and ARID1A-deficient cancer cells, 24 hrs
Description: mRNA was extracted and cDNA was synthesized using the SuperPrep (Registered Trademark) Cell Lysis & RT Kit for qPCR (TOYOBO). Aliquots of cDNA were subjected to quantitative PCR using the SuperPrep/THUNDERBIRD Probe qPCR Set (TOYOBO) and TaqMan Gene Expression Assays (Life Technologies). The following gene-specific primer/probe sets were used: NOXA (PMAIP1) (Hs00560402 ml), NRF2 (NFE2L2) (Hs00975961 g_1), GCLC (Hs00155249 ml), GSS (Hs00609286_m1), and SLC7A11 (Hs00921938_m1). PCR was performed in an ABI StepOnePlus Real-Time PCR System (Life Technologies) under the following conditions: denaturation at 95° C. for 15 s, followed by annealing and extension at 60° C. for 30 s (40 cycles). For each sample, the mRNA levels of target genes were normalized against levels of GAPDH mRNA. The target/GAPDH ratios were then normalized against those in control samples using the 2-ΔΔCt method.

p53, p21 = assay: Immunoblot for p53 and p21; settings: ARID1A-WT and ARID1A-KO HCT116; 50 μM PRIMA-1, 50 μM APR-246, 10 μM Nutlin3a, 16 hrs
Description: The soluble fractions of whole-cell lysates were mixed with SDS sample buffer. […] The soluble fractions were mixed with SDS sample buffer. Tumor samples derived from xenografts were weighed and washed with PBS. […] The homogenized tumor samples were diluted in an additional 450 μl of NETN420 buffer, incubated for 30 min on ice, and centrifuged at 4° C. for 10 min at 15,000 rpm. The soluble fractions of whole-cell lysates were mixed with SDS sample buffer. Proteins were separated by SDS-PAGE, transferred to PVDF membranes, and immunoblotted with the indicated antibodies. β-actin was used as a loading control. Membranes were blocked overnight at 4° C. or for 1 hr at 25° C. with PVDF Blocking Reagent for Can Get Signal (TOYOBO) and then probed with Can Get Signal Solution 1 (TOYOBO) containing primary antibodies. After washing with TBS containing 0.1% Tween 20, the membranes were incubated with TBS containing 0.1% Tween 20, 1% BSA, and horseradish peroxidase-conjugated anti-mouse or anti-rabbit secondary antibodies, and visualized using Western Lightning ECL Pro (Perkin Elmer). Chemiluminescence signals were measured using LAS-3000 Imaging System (Fujifilm). Signal intensities were measured using Multi Gauge software.

[3] = system: SWI/SNF complexes (SMARCA2, SMARCA4, SMARCB1, PBRM1) deficient cancer cells; assay: Cell viability of SWI/SNF complex-deficient cancer cell lines; settings: treatment for 6 days
Description: as §1

[4] = system: TrxR (TrxR1, TrxR2 and TrxR3); assay: Detection of TrxR activity; settings: 24 hrs
Description: TrxR activity including TrxR1, TrxR2 and TrxR3 was measured using the Thioredoxin Reductase Assay Kit (Abcam). Cells were trypsinized, counted, reseeded at the specified density in 10 cm dishes and exposed to the indicated concentrations of APR-246. After 24 hrs, cells were washed with cold PBS and lysed with buffer containing a proteinase inhibitor. After centrifugation, the supernatant was supplemented with a TrxR inhibitor and incubated for 20 min at 25° C. Absorbance was measured using an Envision Multi-label plate reader (PerkinElmer). Relative TrxR ratios were normalized against untreated samples.

## COCC1(CO)C(=O)C2CCN1CC2 (stereo not drawn) [APR-246]
GSH; 40 μM APR-246, 24 hrs
  GSH level (GSH/GSSG) in SWI/SNF complexes-deficient cancer cells: decreased in the GSH level
GSH; 40 or 50 μM APR-246, 1.25 μM erastin, 24 hrs
  GSH levels (GSH/GSSG) in gastric cancer PDCs: markedly decreased GSH levels in ARID1A-deficient PDCs and not in ARID1A-proficient PDCs
GSH; ARID1A-KO HCT116 cells, but not ARID1A-WT cells, 24 hrs
  GSH level (ratio of reduced GSH to GSSG): dose-dependently decreased the GSH level
GSH; ARID1A-deficient PDCs, 50 μM, 24 hrs
  GSH levels in ovarian PDCs: decreased the GSH levels
GSH; ARID1A-deficient versus ARID1A-proficient ovarian and other cancer cells
  GSH level in cancer cell lines: decreased GSH level
[1]
  growth / survival of ARID1A-KO versus ARID1A-WT cells: markedly decreased the survival of ARID1A-KO cells, but not ARID1A-WT cells
[2]
  IC50 values in ARID1A-deficient versus ARID1A-proficient bile duct cancer cell lines: markedly lower in two ARID1A-deficient cell lines than in two ARID1A-proficient cell lines
NOXA
  mRNA expression of NOXA: increased
p53, p21
  expression of p53 and p21: did not markedly affect expression of p53 or p21
[3]
  IC50 values in SWI/SNF complexes deficient versus wild-type cell lines: markedly lower in these SWI/SNF complexes deficient cell lines than in wild-type cell lines
[4]; ARID1A-WT or ARID1A-KO HCT116 cells, same concentrations as decrease GSH
  TrxR activity: did not affect TrxR activity
[4]; HCT116 cells, 50 μM
  TrxR activity at a higher concentration: suppressed TrxR activity
